# Reference: ChEMBL document CHEMBL1201862, “PubChem BioAssay data set” (2004)
#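 Compound exposure: 48 hours, 5 concentrations, 96-well plates. GI50 marks 50% less growth.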 The source made the active and inactive calls. Cut-off read from the data, not from the text of the source: active = GI50 up to about 1.1 µM and inactive = higher.
# Tests used:
# Experiment in all cases: NCI-60 cell line screen, 48 h
# A549 = tested on: A549
# CCRF-CEM = tested on: CCRF-CEM
# COLO 205 = tested on: COLO 205
# DU-145 = tested on: DU-145
# HL-60 = tested on: HL-60
# HOP-62 = tested on: HOP-62
# HT-29 = tested on: HT-29
# K562 = tested on: K562
# NCI-H522 = tested on: NCI-H522
# OVCAR-3 = tested on: OVCAR-3
# OVCAR-5 = tested on: OVCAR-5
# OVCAR-8 = tested on: OVCAR-8
# RPMI-8226 = tested on: RPMI-8226
# SF-295 = tested on: SF-295
# SN12C = tested on: SN12C
# SW-620 = tested on: SW-620
# T47D = tested on: T47D
# UACC-257 = tested on: UACC-257
# RXF 393 = tested on: RXF 393
# SR = tested on: SR
SMILES,GI50 (A549),GI50 (CCRF-CEM),GI50 (COLO 205),GI50 (DU-145),GI50 (HL-60),GI50 (HOP-62),GI50 (HT-29),GI50 (K562),GI50 (NCI-H522),GI50 (OVCAR-3),GI50 (OVCAR-5),GI50 (OVCAR-8),GI50 (RPMI-8226),GI50 (SF-295),GI50 (SN12C),GI50 (SW-620),GI50 (T47D),GI50 (UACC-257),GI50 (RXF 393),GI50 (SR)
c1ccc(CCCN2C3CCC2CN(CCOC(c2ccccc2)c2ccccc2)C3)cc1,13.3 µM (inactive),9.82 µM (inactive),1.68 µM (inactive),16.4 µM (inactive),5.69 µM (inactive),13.5 µM (inactive),3.58 µM (inactive),3.91 µM (inactive),10.9 µM (inactive),13.2 µM (inactive),12.7 µM (inactive),11.4 µM (inactive),3.11 µM (inactive),12.2 µM (inactive),12.1 µM (inactive),15.6 µM (inactive),3.24 µM (inactive),8.49 µM (inactive),–,–
Cn1ncc2c(NCCc3ccccc3)nc(Cl)nc21,20.4 µM (inactive),–,17.3 µM (inactive),44.9 µM (inactive),–,24.4 µM (inactive),14.7 µM (inactive),17.6 µM (inactive),21.9 µM (inactive),33.3 µM (inactive),14 µM (inactive),27.2 µM (inactive),13.7 µM (inactive),16.4 µM (inactive),44.6 µM (inactive),23.3 µM (inactive),11.4 µM (inactive),2.48 µM (inactive),17.1 µM (inactive),–
CC1(C)CCOC(=O)C(Cl)CC1Cl (stereo not drawn),> 100 µM (inactive),> 100 µM (inactive),> 100 µM (inactive),> 100 µM (inactive),–,> 100 µM (inactive),> 100 µM (inactive),> 100 µM (inactive),> 100 µM (inactive),> 100 µM (inactive),> 100 µM (inactive),> 100 µM (inactive),–,> 100 µM (inactive),> 100 µM (inactive),> 100 µM (inactive),> 100 µM (inactive),> 100 µM (inactive),> 100 µM (inactive),> 100 µM (inactive)
CCCCn1c2c(n(CCCC)c1=S)-c1c(n(CCCC)c(=S)n1CCCC)SSSS2,26.7 µM (inactive),0.0957 µM (active),0.432 µM (active),5.42 µM (inactive),–,6.28 µM (inactive),2.26 µM (inactive),0.371 µM (active),0.0785 µM (active),0.267 µM (active),0.362 µM (active),0.718 µM (active),0.399 µM (active),13.3 µM (inactive),3.1 µM (inactive),0.348 µM (active),0.18 µM (active),2.29 µM (inactive),2.7 µM (inactive),0.397 µM (active)
Cc1ccc(S(=O)(=O)OC2C(C3COC(C)(C)O3)OC3OC(C)(C)OC32)cc1 (stereo not drawn),> 100 µM (inactive),> 100 µM (inactive),–,> 100 µM (inactive),–,> 100 µM (inactive),> 100 µM (inactive),> 100 µM (inactive),> 100 µM (inactive),> 100 µM (inactive),> 100 µM (inactive),> 100 µM (inactive),–,> 100 µM (inactive),> 100 µM (inactive),> 100 µM (inactive),> 100 µM (inactive),> 100 µM (inactive),> 100 µM (inactive),> 100 µM (inactive)
CC[N+]1(C)CCC(O)(/C=C/c2ccc(OC)cc2)C(C(=O)/C=C/c2ccc(OC)cc2)C1 (stereo not drawn),23.3 µM (inactive),0.548 µM (active),2.58 µM (inactive),14.2 µM (inactive),1.52 µM (inactive),19.3 µM (inactive),13.2 µM (inactive),2.06 µM (inactive),2.26 µM (inactive),19.7 µM (inactive),21.2 µM (inactive),23.3 µM (inactive),0.252 µM (active),18.6 µM (inactive),21.3 µM (inactive),2.7 µM (inactive),5.86 µM (inactive),17.4 µM (inactive),15.1 µM (inactive),–
CNc1ncnc2c1cnn2Cc1cn(CCCCO)nn1,> 100 µM (inactive),> 100 µM (inactive),> 100 µM (inactive),> 100 µM (inactive),–,> 100 µM (inactive),> 100 µM (inactive),> 100 µM (inactive),> 100 µM (inactive),> 100 µM (inactive),> 100 µM (inactive),> 100 µM (inactive),> 100 µM (inactive),> 100 µM (inactive),> 100 µM (inactive),> 100 µM (inactive),> 100 µM (inactive),> 100 µM (inactive),> 100 µM (inactive),> 100 µM (inactive)
CCOc1ccc2c(c1)c(=O)c1c(NCCN(CC)CC)ccc3nnn2c31,> 39.5 µM (inactive),4.91 µM (inactive),33.9 µM (inactive),19.1 µM (inactive),–,> 31.4 µM (inactive),12.6 µM (inactive),18.2 µM (inactive),7.6 µM (inactive),> 100 µM (inactive),> 36.1 µM (inactive),7.05 µM (inactive),15.1 µM (inactive),> 35.6 µM (inactive),9.82 µM (inactive),12.6 µM (inactive),> 100 µM (inactive),> 41.6 µM (inactive),8.55 µM (inactive),10.4 µM (inactive)
Cn1nc(Cc2ccc(Cl)cc2)n(N)c1=O,> 100 µM (inactive),–,–,> 100 µM (inactive),–,–,> 100 µM (inactive),> 100 µM (inactive),–,–,> 100 µM (inactive),> 100 µM (inactive),> 100 µM (inactive),> 100 µM (inactive),> 100 µM (inactive),> 100 µM (inactive),> 100 µM (inactive),> 100 µM (inactive),> 100 µM (inactive),–
CC(=O)Nc1ccc(C(=O)NN2C(=O)CSC2c2ccc([N+](=O)[O-])cc2)cc1 (stereo not drawn),> 100 µM (inactive),> 100 µM (inactive),> 100 µM (inactive),> 100 µM (inactive),–,> 100 µM (inactive),> 100 µM (inactive),> 100 µM (inactive),–,> 100 µM (inactive),> 100 µM (inactive),> 100 µM (inactive),> 100 µM (inactive),> 100 µM (inactive),> 100 µM (inactive),> 100 µM (inactive),> 100 µM (inactive),> 100 µM (inactive),> 100 µM (inactive),–
CC(C)(C)C1=CC(O)(c2c3ccccc3c(C3(O)C=C(C(C)(C)C)C(=O)C(C(C)(C)C)=C3)c3ccccc23)C=C(C(C)(C)C)C1=O,> 100 µM (inactive),50.2 µM (inactive),> 100 µM (inactive),> 100 µM (inactive),> 10 µM (inactive),> 100 µM (inactive),> 100 µM (inactive),81.8 µM (inactive),> 100 µM (inactive),> 100 µM (inactive),> 100 µM (inactive),> 100 µM (inactive),58.3 µM (inactive),> 100 µM (inactive),> 100 µM (inactive),> 100 µM (inactive),> 100 µM (inactive),> 100 µM (inactive),–,–
CC(=O)Oc1ccc2c3c1[C@@H]1O[C@@H]1c1cccc(c1-3)[C@@H]1O[C@H]21,2.32 µM (inactive),0.601 µM (active),1.99 µM (inactive),1.91 µM (inactive),0.883 µM (active),2.01 µM (inactive),1.81 µM (inactive),–,1.47 µM (inactive),2 µM (inactive),1.86 µM (inactive),1.54 µM (inactive),1.37 µM (inactive),1.94 µM (inactive),1.6 µM (inactive),1.14 µM (inactive),2.14 µM (inactive),2.43 µM (inactive),1.36 µM (inactive),–
CN(CCC(=O)N1CC(CCl)c2ccc([N+](=O)[O-])cc21)CCC(=O)N1CC(CCl)c2ccc([N+](=O)[O-])cc21 (stereo not drawn),36.6 µM (inactive),15.9 µM (inactive),15.4 µM (inactive),31.5 µM (inactive),–,33.7 µM (inactive),11.7 µM (inactive),14.3 µM (inactive),6.53 µM (inactive),11.5 µM (inactive),> 100 µM (inactive),14.3 µM (inactive),3.96 µM (inactive),13.7 µM (inactive),19 µM (inactive),15.6 µM (inactive),25.1 µM (inactive),9.2 µM (inactive),–,1.77 µM (inactive)
COc1ccccc1/N=N/c1c(O)c(S(=O)(=O)O)cc2cc(S(=O)(=O)O)ccc12,> 100 µM (inactive),> 100 µM (inactive),> 100 µM (inactive),> 100 µM (inactive),–,> 100 µM (inactive),> 100 µM (inactive),> 100 µM (inactive),> 100 µM (inactive),> 100 µM (inactive),> 100 µM (inactive),> 100 µM (inactive),> 100 µM (inactive),> 100 µM (inactive),> 100 µM (inactive),> 100 µM (inactive),> 100 µM (inactive),> 100 µM (inactive),> 100 µM (inactive),> 100 µM (inactive)
O=c1c(Cc2cccc(Cc3c(O)oc4ccccc4c3=O)c2)c(O)oc2ccccc12,> 100 µM (inactive),> 100 µM (inactive),> 100 µM (inactive),> 100 µM (inactive),> 100 µM (inactive),> 100 µM (inactive),> 100 µM (inactive),> 100 µM (inactive),> 100 µM (inactive),> 100 µM (inactive),> 100 µM (inactive),> 100 µM (inactive),> 100 µM (inactive),> 100 µM (inactive),> 100 µM (inactive),> 100 µM (inactive),> 100 µM (inactive),> 100 µM (inactive),> 100 µM (inactive),–
